Read-outs that look alike come from different tables or passages of the source.
What was measured:
β-arrestin 2 = assay: NanoBiT recruitment of β-arrestin 2 by GLP-1R in HEK293 cells; assay type: cell-based; conditions: Homo sapiens, read-out: maximum agonistic effect (Emax) recruiting β-arrestin 2;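 further: 100% equals the maximal response of endogenous GLP-1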
Text: (§1) The Promega NanoBiT protein-protein reaction system was used to detect the recruitment of β-arrestin 1 and β-arrestin 2 by GLP-1R. The NanoBit Protein-Protein Reaction System was a dual-subunit system based on NanoLuc luciferase that could be used to detect protein-protein interactions in cells. The LgBiT (17.6 kDa) and SmBiT (11 amino acids) subunits were fused to the proteins of interest, respectively. When the proteins of interest interact, the two subunits came into close proximity to form an enzyme with catalytic activity, which could catalyze the luminescence of the luciferase substrate. Firstly, the human GLP-1R gene was connected to the N-terminus of LgBit, the β-arrestin 1/2 gene was cloned to the C-terminus of SmBit, and the fusion protein was introduced into the pcDNA3.0 vector to construct plasmids expressing hGLP-1R-LgBit and SmBit-β-arrestin 1/2 fusion proteins. The hGLP-1R-LgBit plasmid and SmBit-β-arrestin 1 (or SmBit-β-arrestin 2) plasmid were co-transfected into HEK293 cells at a ratio of 1 µg plasmid/2×10^6 cells. Immediately after transfection, the cells were added to a 96-well white-bottom plate at a density of 4×10^5 cells/well, and the cells were cultured in an incubator (37°C, 5% CO2) for 20 hours.
(§2) After 20 hours, the liquid in the wells was discarded, 40 µL of fresh culture medium (DMEM+0.2% BSA, m/v) was added first, and then 10 µL of Nano-Glo Live Cell detection solution (Promega, #N2011) was added, and then the cells were placed in an incubator and incubated for 10 minutes. The compound was dissolved in DMSO and prepared into a storage solution with a concentration of 10mM. The experiment started with a concentration of 100µM. […] After the cells were incubated for 10 min, 25 µL of culture medium containing the compound was added to each well and incubated at room temperature for 5 min. The fluorescence signal was then detected using an Envision 2104 multi-function microplate reader (PerkinElmer). All samples were tested in triplicate, and the fluorescence signal ratio and the corresponding compound concentration were analyzed using GraphPad Prism 8 software.

β-arrestin 1 = assay: NanoBiT recruitment of β-arrestin 1 by GLP-1R in HEK293 cells; assay type: cell-based; conditions: Homo sapiens, read-out: maximum agonistic effect (Emax) recruiting β-arrestin 1;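 further: 100% equals the maximal response of endogenous GLP-1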
Text: as §1, §2

human GLP-1 receptor = molecular target: T1, human GLP-1 receptor (Homo sapiens, UniProt P43220); assay: GLP-1 receptor-mediated agonist activity: cAMP level in hGLP-1R/HEK293 cell line (HTRF); assay type: cell-based
T1 construct: HA (N); expressed in transfected cells
Procedure: The hGLP-1R/HEK293 cells were digested, centrifuged and resuspended in culture medium (DMEM+0.2% BSA, m/v), and the cell density was adjusted to 2×10^5 cells/mL. IBMX (3-isobutyl-1-methylxanthine, final concentration of 0.5 mM) was added to the cell suspension and added to a 384-well plate at 5 µL (1×10^3 cells)/well. The compound was dissolved in DMSO to prepare a stock solution with a concentration of 10 mM. The experiment started with a concentration of 100 µM which was diluted 10 times in a series of 7 dilution points, with the 8th point being DMSO. 2 µL of the test compound of different concentrations was added to 98 µL of culture medium, shaken and mixed, 5 µL was taken and added to a 384-well plate (final concentration of the test compound was 0-100 nM, final concentration of DMSO was 1%, v/v), which was then incubated in the incubator (37°C, 5% CO2) in the dark for 30 min, then 10 µL of cAMP detection reagent (LANCE Ultra cAMP Detecion Kit, PerkinElmer, #TRF0264) was added, mixed well, and reacted at room temperature in the dark for 1 h. After the reaction was completed, the HTRF signal was read using the Envision 2104 multi-function microplate reader. All samples were tested in triplicate wells, and the ratio of the acceptor-donor excitation signal in each single well was calculated using the formula Ratio = Signal 665nM/Signal 620nM. The HTRF signal ratio and the corresponding compound concentration were analyzed and processed using GraphPad Prism 8 software, and the EC50 value of the compound was obtained by fitting the S-type dose-response curve and calculating.

hERG potassium channels = hERG potassium channels (Homo sapiens, UniProt Q12809); assay: cell-based
Procedure: CHO cells expressing hERG protein were cultured in 175 cm^2 culture flasks. When the cell density grew to 60-80%, the culture medium was removed, the cells were washed once with 7 mL PBS, and then 3 mL Detachin was added for digestion. After digestion was complete, 7 mL of culture medium was added to neutralize, then centrifuged. The supernatant was aspirated, and 5 mL of culture medium was added to resuspend to ensure that the cell density is 2-5×10^6/mL.
Both the single-cell high-impedance sealing and whole-cell mode formation processes were automatically completed by the Qpatch instrument. After obtaining the whole-cell recording mode, the cell was clamped at -80 mV. Before a 5-second +20 mV depolarizing stimulus was given, a 50-ms -50 mV pre-voltage was given, and then the cell was repolarized to -50 mV for 5 seconds and then returned to -80 mV. This voltage stimulation was applied every 15 seconds. After recording for 2 minutes, the extracellular solution was recorded for 2 minutes. Then the drug administration process began. The compound concentration started from the lowest tested concentration. Each tested concentration was given for 2 minutes. […] At least three cells were tested for each concentration (n≥3).
The compound stock solution was diluted with extracellular fluid, 5 µL of 20 mM compound stock solution was added to 2495 µL extracellular fluid, diluted 500 times to 40 µM, and then serially diluted 3 times in extracellular fluid containing 0.2% DMSO (v/v) to obtain the final concentration to be tested.
The experimental data were analyzed by XLFit software.

[1] = cAMP levels in hGLP-1R/HEK293 cell line, Table 1, read-out: determined EC50
[2] = cAMP levels of the hGLP-1R/HEK293 cell line, Table 2, comparison with reference compounds, read-out: EC50

T1 sequence (P43220 24-463): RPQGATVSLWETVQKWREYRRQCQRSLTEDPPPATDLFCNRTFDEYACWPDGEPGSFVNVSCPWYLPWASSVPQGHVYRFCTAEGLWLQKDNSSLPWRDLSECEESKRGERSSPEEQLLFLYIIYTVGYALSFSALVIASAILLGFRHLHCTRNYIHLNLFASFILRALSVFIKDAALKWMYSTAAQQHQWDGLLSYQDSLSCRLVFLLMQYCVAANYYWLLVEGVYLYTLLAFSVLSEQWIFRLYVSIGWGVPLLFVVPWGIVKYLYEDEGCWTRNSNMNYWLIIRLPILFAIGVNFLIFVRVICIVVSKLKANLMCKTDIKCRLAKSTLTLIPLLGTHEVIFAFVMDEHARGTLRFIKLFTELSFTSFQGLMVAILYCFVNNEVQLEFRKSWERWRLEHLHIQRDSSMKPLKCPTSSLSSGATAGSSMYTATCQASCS
Sequence of hERG potassium channels (Q12809 whole entry): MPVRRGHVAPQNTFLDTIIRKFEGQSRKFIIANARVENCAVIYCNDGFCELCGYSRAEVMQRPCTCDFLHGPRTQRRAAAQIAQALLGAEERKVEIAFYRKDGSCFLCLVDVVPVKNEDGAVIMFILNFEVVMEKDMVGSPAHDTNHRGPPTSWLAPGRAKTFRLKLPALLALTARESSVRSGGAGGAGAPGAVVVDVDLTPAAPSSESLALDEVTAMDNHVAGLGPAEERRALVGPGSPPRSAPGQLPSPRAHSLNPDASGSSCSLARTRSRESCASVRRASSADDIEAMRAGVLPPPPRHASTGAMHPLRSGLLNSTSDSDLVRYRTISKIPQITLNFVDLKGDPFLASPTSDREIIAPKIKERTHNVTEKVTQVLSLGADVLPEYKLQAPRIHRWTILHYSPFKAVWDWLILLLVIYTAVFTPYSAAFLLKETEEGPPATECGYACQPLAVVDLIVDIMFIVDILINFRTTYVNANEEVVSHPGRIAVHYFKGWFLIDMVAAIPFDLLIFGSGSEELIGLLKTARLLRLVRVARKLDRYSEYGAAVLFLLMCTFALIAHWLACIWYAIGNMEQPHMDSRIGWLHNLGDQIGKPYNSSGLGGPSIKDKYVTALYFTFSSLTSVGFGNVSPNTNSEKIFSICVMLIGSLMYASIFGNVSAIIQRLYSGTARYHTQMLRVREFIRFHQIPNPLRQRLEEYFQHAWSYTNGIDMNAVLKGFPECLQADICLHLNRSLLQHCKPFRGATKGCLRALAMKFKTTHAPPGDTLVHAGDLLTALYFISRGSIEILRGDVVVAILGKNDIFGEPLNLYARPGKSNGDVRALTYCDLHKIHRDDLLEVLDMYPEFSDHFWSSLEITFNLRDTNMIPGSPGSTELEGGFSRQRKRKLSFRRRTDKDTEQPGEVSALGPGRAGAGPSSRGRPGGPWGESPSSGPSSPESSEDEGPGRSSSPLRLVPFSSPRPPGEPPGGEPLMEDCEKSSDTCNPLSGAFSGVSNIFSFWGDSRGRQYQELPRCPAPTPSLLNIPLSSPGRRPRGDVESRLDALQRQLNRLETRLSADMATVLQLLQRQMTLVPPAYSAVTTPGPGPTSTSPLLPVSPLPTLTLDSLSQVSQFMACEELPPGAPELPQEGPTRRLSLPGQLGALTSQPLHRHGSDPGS

| SMILES | EC50 (human GLP-1 receptor; [1]) [nM] | EC50 (human GLP-1 receptor; [2]) [nM] | Emax (β-arrestin 2) [%] | Emax (β-arrestin 1) [%] | IC50 (hERG potassium channels) [nM] |
| --- | --- | --- | --- | --- | --- |
| O=C(O)c1cc(F)c2nc(CN3CCN(c4cccc(OCc5ccc(Cl)cc5F)n4)C=N3)n(C[C@@H]3CCO3)c2c1 [CN2022114139828 , Compound 2, reference compound] | – | – | 75 to 80 | 75 to 80 | – |
| COc1cc(C#N)ccc1COc1cccc(C2CCN(Cc3nc4c(OC)cc(C(=O)O)cc4n3C[C@@H]3CCO3)CC2)n1 [Compound 4, (S)-2-((4-(6-((4-cyano-2-methoxybenzyl)oxy)pyridin-2-yl)piperidin-1-yl)methyl)-4-methoxy-1-(oxetan-2-ylmethyl)-1H-benzo[d]imidazole-6-carboxylic acid] | – | – | 30 to 50 | 30 to 50 | – |
| [2H]C([2H])([2H])Oc1cc(C(=O)O)cc2c1nc(CN1CCC(c3cccc4c3OC(C)(c3ccc(Cl)cn3)O4)CC1)n2C[C@@H]1CCO1 (stereo partly drawn) [Compound 61, 2-((4-(2-(5-chloropyridin-2-yl)-2-methylbenzo[d][1,3]dioxol-4-yl)piperidin-1-yl)methyl)-4-(methoxy-d3)-1-(((S)-oxetan-2-yl)methyl)-1H-benzo[d]imidazole-6-carboxylic acid] | 0.0103 | – | – | – | > 40000 |
| COc1cc(C(=O)O)cc2c1nc(CN1CCN(c3cccc4c3OC(C)(c3ccc(Cl)cc3F)O4)C=N1)n2C[C@@H]1CCO1 (stereo partly drawn) [Compound 63, 2-((4-(2-(4-chloro-2-fluorophenyl)-2-methylbenzo[d][1,3]dioxol-4-yl)-5,6-dihydro-1,2,4-triazin-1(4H)-yl)methyl)-4-methoxy-1-(((S)-oxetan-2-yl)methyl)-1H-benzo[d]imidazole-6-carboxylic acid] | 0.0152 | – | – | – | > 40000 |
| [2H]C([2H])([2H])Oc1cc(C(=O)O)cc2c1nc(CN1CCC(c3cccc4c3OC(C)(c3ccc(C(F)(F)F)cn3)O4)CC1)n2C[C@@H]1CCO1 (stereo partly drawn) [Compound 67, 4-(methoxy-d3)-2-((4-(2-methyl-2-(5-(trifluoromethyl)pyridin-2-yl)benzo[d][1,3]dioxol-4-yl)piperidin-1-yl)methyl)-1-(((S)-oxetan-2-yl)methyl)-1H-benzo[d]imidazole-6-carboxylic acid] | 0.0141 | – | – | – | > 40000 |
| [2H]C([2H])([2H])C([2H])([2H])Oc1cc(C(=O)O)cc2c1nc(CN1CCN(c3cccc4c3OC(C)(c3ccc(Cl)cn3)O4)C=N1)n2C[C@@H]1CCO1 (stereo partly drawn) [Compound 73, 2-((4-(2-(5-chloropyridin-2-yl)-2-methylbenzo[d][1,3]dioxol-4-yl)-5,6-dihydro-1,2,4-triazin-1(4H)-yl)methyl)-4-(ethoxy-d5)-1-(((S)-oxetan-2-yl)methyl)-1H-benzo[d]imidazole-6-carboxylic acid] | 0.0084 | – | – | – | > 40000 |
| [2H]C([2H])([2H])C([2H])([2H])Oc1cc(C(=O)O)cc2c1nc(CN1CCN(c3cccc4c3OC(C)(c3ccc(Cl)cc3F)O4)C=N1)n2C[C@@H]1CCO1 (stereo partly drawn) [Compound 76, 2-((4-(2-(4-chloro-2-fluorophenyl)-2-methylbenzo[d][1,3]dioxol-4-yl)-5,6-dihydro-1,2,4-triazin-1(4H)-yl)methyl)-4-(ethoxy-d5)-1-(((S)-oxetan-2-yl)methyl)-1H-benzo[d]imidazole-6-carboxylic acid] | 0.0045 | – | – | – | > 40000 |
| [2H]C([2H])([2H])C([2H])([2H])Oc1cc(C(=O)O)cc2c1nc(CN1CCN(c3cccc4c3OC(C)(c3ccc(C(F)(F)F)cc3F)O4)C=N1)n2C[C@@H]1CCO1 (some centres unmarked) [Compound 82] | 0.0131 | – | – | – | > 40000 |
| O=C(O)c1ccc2nc(CN3CCC(c4cccc(OCc5ccc(Cl)cc5F)n4)CC3)n(C[C@@H]3CCO3)c2c1 [WO2018109607 , Example 3A-01, reference compound] | – | 0.0327 | – | – | – |
| O=C(O)c1ccc2nc(CN3CCN(c4cccc(OCc5ccc(Cl)cc5F)n4)CC3)n(C[C@@H]3CCO3)c2c1 [WO2018109607 , Example 10A-08, reference compound] | – | 0.0289 | – | – | – |
| CC1(c2ccc(Cl)cc2F)Oc2cccc(C3CCN(Cc4nc5ccc(C(=O)O)cc5n4C[C@@H]4CCO4)CC3)c2O1 (some centres unmarked) [WO2019239319 , Example 7, reference compound] | – | 0.022 | – | – | – |
| O=C(O)c1ccc2nc(CN3CCC(c4cccnc4OCc4ccc(Cl)cc4F)CC3)n(C[C@@H]3CCO3)c2c1 [WO2019239371 , Example 1, reference compound] | – | 0.0458 | – | – | – |

Continued, in another order:

| EC50 (human GLP-1 receptor; [1]) [nM] | EC50 (human GLP-1 receptor; [2]) [nM] | SMILES | Emax (β-arrestin 2) [%] | Emax (β-arrestin 1) [%] | IC50 (hERG potassium channels) [nM] |
| --- | --- | --- | --- | --- | --- |
| 0.0064 | – | CCCOc1cc(C(=O)O)cc2c1nc(CN1CCC(c3cccc(OCc4ccc(C#N)cc4F)n3)CC1)n2C[C@@H]1CCO1 [Compound 3, (S)-2-((4-(6-((4-cyano-2-fluorobenzyl)oxy)pyridin-2-yl)piperidin-1-yl)methyl)-1-(oxetan-2-ylmethyl)-4-propoxy-1H-benzo[d]imidazole-6-carboxylic acid] | 30 to 50 | 30 to 50 | – |
| 0.0012 | – | CCOc1cc(C(=O)O)cc2c1nc(CN1CCN(c3cccc(OCc4ccc(C#N)cc4F)n3)C=N1)n2C[C@@H]1CCO1 [Compound 9, (S)-2-((4-(6-((4-cyano-2-fluorobenzyl)oxy)pyridin-2-yl)-5,6-dihydro-1,2,4-triazin-1(4H)-yl)methyl)-4-ethoxy-1-(oxetan-2-ylmethyl)-1H-benzo[d]imidazole-6-carboxylic acid] | – | – | > 40000 |
| 0.0047 | – | COc1cc(C(=O)O)cc2c1nc(CN1CCN(c3cccc(OCc4ccc(Cl)cc4F)n3)C=N1)n2C[C@@H]1CCO1 [Compound 17, (S)-2-((4-(6-((4-chloro-2-fluorobenzyl)oxy)pyridin-2-yl)-5,6-dihydro-1,2,4-triazin-1(4H)-yl)methyl)-4-methoxy-1-(oxetan-2-ylmethyl)-1H-benzo[d]imidazole-6-carboxylic acid] | – | – | > 40000 |
| 0.0015 | – | COc1cc(C(F)(F)F)ccc1COc1cccc(N2C=NN(Cc3nc4c(OC)cc(C(=O)O)cc4n3C[C@@H]3CCO3)CC2)n1 [Compound 23, (S)-4-methoxy-2-((4-(6-((2-methoxy-4-(trifluoromethyl)benzyl)oxy)pyridin-2-yl)-5,6-dihydro-1,2,4-triazin-1(4H)-yl)methyl)-1-(oxetan-2-ylmethyl)-1H-benzo[d]imidazole-6-carboxylic acid] | – | – | > 40000 |
| 0.0084 | – | CCOc1cc(C(=O)O)cc2c1nc(CN1CCN(c3cccc4c3OC(C)(c3ccc(C(F)(F)F)cc3F)O4)C=N1)n2C[C@@H]1CCO1 (stereo partly drawn) [Compound 81, 4-ethoxy-2-((4-(2-(2-fluoro-4-(trifluoromethyl)phenyl)-2-methylbenzo[d][1,3]dioxol-4-yl)-5,6-dihydro-1,2,4-triazin-1(4H)-yl)methyl)-1-(((S)-oxetan-2-yl)methyl)-1H-benzo[d]imidazole-6-carboxylic acid] | – | – | > 40000 |
| – | 0.0261 | N#Cc1ccc(COc2cccc(C3CCN(Cc4nc5c(F)cc(C(=O)O)cc5n4C[C@@H]4CCO4)CC3)n2)c(F)c1 [WO2022109182 , Example 21, reference compound] | – | – | – |
